A word on the pIC50: it is the IC50 on a negative log10 scale, so that one unit is a factor of ten. Broadly, the MTD is the largest dose that counted as tolerated. The MRT is the average time that molecules of a dose stay in the body. For orientation: Tmax means the time from dosing to the highest level. The AUC is the area under the concentration-time curve, a measure of exposure.

The values below come from patent publication US20210221822A1, “TRICYCLIC DERIVATIVES INHIBITOR, PREPARATION METHOD, AND APPLICATIONS THEREOF” (Jiangsu Hansoh Pharmaceutical Group Co., Ltd., priority 2018, published 2021).

Series [1] deals with T1, PI3Kγ (Homo sapiens, UniProt P48736).
T1 construct: purchased Thermofisher PV4786
T1 sequence (P48736 whole entry): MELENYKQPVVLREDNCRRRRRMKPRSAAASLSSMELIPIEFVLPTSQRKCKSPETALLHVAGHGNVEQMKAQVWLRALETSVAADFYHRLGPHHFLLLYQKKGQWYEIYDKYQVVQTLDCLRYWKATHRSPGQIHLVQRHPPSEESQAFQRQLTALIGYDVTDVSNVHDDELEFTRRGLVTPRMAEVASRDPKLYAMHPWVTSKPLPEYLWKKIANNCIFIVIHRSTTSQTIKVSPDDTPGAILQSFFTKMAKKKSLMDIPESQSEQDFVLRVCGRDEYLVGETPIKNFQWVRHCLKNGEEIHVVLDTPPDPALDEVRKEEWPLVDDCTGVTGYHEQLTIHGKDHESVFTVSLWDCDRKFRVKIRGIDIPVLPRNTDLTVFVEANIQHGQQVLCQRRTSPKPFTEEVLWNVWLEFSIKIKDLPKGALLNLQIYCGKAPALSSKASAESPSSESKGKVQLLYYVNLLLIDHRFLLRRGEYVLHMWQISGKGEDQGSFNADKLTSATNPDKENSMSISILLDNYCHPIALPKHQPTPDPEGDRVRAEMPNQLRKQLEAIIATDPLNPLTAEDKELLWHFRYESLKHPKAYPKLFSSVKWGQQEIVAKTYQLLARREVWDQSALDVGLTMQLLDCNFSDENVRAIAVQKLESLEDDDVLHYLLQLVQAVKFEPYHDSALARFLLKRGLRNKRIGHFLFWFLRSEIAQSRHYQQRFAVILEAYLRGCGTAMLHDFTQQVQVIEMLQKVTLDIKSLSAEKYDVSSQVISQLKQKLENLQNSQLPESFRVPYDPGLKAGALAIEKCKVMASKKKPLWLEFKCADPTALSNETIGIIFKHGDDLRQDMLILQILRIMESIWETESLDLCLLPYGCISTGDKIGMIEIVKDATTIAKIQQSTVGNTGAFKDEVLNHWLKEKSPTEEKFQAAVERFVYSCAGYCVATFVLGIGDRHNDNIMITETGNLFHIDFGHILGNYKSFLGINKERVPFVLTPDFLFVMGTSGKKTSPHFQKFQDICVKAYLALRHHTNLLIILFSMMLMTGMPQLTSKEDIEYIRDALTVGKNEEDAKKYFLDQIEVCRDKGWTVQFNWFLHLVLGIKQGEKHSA
The series can be described thus: ADP-Glo lipid kinase assay, PI3Kγ kinase activity. Format: biochemical. The following applies: 0.4 nM enzyme, 120 min, 50 μM ATP. A digest of the protocol: (§1)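 ADP-Glo luminescence measured ADP formed by PI3Kα, β, γ or δ (0.1-2 nM working solution) with PIP2:3PS (50 μM added solution) and ATP in HEPES/MgCl2/NaCl/BSA buffer, 90 to 120 min at room temperature. % inhibition was set against DMSO and no-kinase controls, and IC50 came from a four-parameter fit.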
(In general: In ADP-Glo the light output rises with the ADP produced.)

In series [2] the test system is PI3Kα mutant cancer cells HGC-27 (E542K). Put plainly: Cell Titer-Glo proliferation inhibition, HGC-27. The class given is cell-based. As to conditions: Homo sapiens, 48 to 96 hours. As for the experimental part:
(§2) Experimental method: The proliferation inhibitory effect of the compounds of the examples on PI3Kα mutant cancer cell lines HCC1954, HGC-27 and MKN1 was determined by Cell Titer-Glo method. The cell lines were cultured in RPMI 1640 medium (Gibco #22400089) containing 10% FBS (Gibco #10091148) and 1% P/S (Hyclone #SV30010) at 37° C. and 5% CO2. Before the experiment, the cells were collected and counted, and then the cell density was adjusted. The cells were inoculated in a white 96-well plate (Corning #3610) at a density of 1000 to 10000 cells/well, and incubated in an incubator at 37° C., 5% CO2 overnight. The compound solution of different concentrations was added, and corresponding vehicle control was set at the same time. The cell plate was further incubated in an incubator at 37° C., 5% CO2 for 48 to 96 hours. The cell plate and its content were equilibrated to room temperature. 20 to 100 μL of Cell Titer-Glo solution (Promega #G7573) was added to each well, and the plate was shaked well and incubated at room temperature in the dark for 5 to 30 minutes. The chemiluminescence value was measured by the BioTek SynergyH1 microplate reader.
(§3) The percentage inhibition data of the well treated by the compounds of the examples was calculated through the vehicle control well on the plate {% inhibition rate=100−(test compound value/vehicle control value)×100}. The IC50 value was calculated by fitting the data of different concentrations and corresponding percentage inhibition rates to a four-parameter nonlinear logic formula with GraphPad prism.
(In general: In ATP-based viability assays light output follows the ATP content of the culture.)

Series [3] deals with T2, PI3Kβ (Homo sapiens, UniProt P42338).
T2 construct: purchased Carna 11-102
T2 sequence (P42338 whole entry): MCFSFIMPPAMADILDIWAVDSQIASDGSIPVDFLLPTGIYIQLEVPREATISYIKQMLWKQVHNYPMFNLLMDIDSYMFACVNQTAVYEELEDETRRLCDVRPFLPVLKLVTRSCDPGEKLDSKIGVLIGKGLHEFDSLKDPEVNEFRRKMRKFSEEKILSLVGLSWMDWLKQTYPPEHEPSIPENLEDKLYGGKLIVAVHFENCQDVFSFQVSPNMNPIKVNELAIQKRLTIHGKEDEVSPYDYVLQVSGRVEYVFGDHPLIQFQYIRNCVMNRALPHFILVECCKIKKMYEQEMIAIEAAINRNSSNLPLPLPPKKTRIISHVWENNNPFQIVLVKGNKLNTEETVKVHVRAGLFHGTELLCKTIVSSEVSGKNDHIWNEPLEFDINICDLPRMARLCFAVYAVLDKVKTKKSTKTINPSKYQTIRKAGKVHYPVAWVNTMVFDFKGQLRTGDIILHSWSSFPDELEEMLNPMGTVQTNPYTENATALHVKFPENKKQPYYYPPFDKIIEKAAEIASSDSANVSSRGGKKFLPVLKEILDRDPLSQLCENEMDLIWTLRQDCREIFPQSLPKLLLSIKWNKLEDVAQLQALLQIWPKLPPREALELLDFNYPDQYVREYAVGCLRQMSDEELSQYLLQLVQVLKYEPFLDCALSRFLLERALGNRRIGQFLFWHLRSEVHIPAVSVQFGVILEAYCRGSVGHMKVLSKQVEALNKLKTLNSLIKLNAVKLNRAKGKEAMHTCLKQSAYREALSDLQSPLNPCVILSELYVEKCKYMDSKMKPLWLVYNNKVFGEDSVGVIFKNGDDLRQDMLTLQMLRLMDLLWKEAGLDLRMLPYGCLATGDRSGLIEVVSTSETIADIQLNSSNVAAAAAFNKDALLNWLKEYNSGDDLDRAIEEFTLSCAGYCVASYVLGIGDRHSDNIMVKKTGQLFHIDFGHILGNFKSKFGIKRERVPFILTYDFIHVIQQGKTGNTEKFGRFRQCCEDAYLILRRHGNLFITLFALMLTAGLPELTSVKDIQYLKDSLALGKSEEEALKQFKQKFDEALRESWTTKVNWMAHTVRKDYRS
T2 sequence (P27986 whole entry partner): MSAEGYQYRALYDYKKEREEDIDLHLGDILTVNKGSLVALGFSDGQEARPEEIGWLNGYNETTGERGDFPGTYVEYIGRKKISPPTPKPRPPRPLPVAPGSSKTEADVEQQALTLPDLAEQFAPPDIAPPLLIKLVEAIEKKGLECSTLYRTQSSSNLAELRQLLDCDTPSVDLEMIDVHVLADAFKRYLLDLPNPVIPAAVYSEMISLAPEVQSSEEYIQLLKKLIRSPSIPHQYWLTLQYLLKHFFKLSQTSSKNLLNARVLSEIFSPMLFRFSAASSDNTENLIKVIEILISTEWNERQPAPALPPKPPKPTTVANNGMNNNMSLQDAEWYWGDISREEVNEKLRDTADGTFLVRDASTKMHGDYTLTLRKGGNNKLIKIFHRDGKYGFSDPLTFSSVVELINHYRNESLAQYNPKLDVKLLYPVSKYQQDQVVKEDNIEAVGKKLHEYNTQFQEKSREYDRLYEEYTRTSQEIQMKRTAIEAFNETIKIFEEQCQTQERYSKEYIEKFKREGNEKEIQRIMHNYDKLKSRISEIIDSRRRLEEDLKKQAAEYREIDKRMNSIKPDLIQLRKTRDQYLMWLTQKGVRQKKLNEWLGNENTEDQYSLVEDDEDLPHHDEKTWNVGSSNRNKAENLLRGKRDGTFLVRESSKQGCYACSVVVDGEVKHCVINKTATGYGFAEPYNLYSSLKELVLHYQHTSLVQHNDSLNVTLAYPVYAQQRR
Put plainly: ADP-Glo lipid kinase assay, PI3Kβ kinase activity. The class given is biochemical. The following applies: 0.4 nM enzyme, 90 min, 100 μM ATP. A digest of the protocol: as §1

In series [4] the test system is PI3Kα mutant cancer cells HCC1954 (H1047R). Put plainly: Cell Titer-Glo proliferation inhibition, HCC1954. The class given is cell-based. The following applies: Homo sapiens, 48 to 96 hours. As to the method:
as §2, §3

In series [5] the target is T3, PI3Kα (Homo sapiens, UniProt P42336).
T3 construct: purchased Promega V1721
T3 sequence (P42336 whole entry): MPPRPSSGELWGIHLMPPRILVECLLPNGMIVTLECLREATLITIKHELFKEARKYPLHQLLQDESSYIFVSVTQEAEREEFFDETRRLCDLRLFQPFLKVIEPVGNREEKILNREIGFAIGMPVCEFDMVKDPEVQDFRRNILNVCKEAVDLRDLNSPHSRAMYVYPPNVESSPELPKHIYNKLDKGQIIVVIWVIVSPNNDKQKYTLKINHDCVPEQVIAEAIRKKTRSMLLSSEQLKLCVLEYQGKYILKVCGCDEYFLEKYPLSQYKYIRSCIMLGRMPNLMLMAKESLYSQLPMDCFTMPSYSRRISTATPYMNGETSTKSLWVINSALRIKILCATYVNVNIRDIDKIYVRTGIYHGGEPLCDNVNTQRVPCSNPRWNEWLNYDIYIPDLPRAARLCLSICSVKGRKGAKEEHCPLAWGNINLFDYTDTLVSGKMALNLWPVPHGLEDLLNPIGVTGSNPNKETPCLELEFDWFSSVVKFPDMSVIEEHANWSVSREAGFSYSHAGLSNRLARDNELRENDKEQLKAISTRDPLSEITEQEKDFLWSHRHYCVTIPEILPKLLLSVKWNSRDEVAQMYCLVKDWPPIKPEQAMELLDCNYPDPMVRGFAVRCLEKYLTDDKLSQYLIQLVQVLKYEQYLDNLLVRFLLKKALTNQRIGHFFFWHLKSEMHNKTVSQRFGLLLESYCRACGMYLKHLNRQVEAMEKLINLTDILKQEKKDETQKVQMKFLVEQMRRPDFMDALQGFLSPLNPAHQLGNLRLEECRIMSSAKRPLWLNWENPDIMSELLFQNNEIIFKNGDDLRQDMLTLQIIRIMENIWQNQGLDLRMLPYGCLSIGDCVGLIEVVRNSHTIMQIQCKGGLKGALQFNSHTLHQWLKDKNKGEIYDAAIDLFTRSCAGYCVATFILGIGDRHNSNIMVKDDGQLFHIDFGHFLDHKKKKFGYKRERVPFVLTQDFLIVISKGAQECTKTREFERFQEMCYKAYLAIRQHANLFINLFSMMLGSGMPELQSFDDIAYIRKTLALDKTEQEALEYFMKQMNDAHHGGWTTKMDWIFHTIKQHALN
T3 sequence (P27986 whole entry partner): as the sequence (P27986 whole entry partner) above
Put plainly: ADP-Glo lipid kinase assay, PI3Kα kinase activity. Format: biochemical. As to conditions: for pIC50: ADP-Glo, 0.1 nM enzyme, 120 min, 50 μM ATP; for Selectivity of PI3Kα vs PI3Kβ: ratio of IC50 PI3Kβ to IC50 PI3Kα; for Selectivity of PI3Kα vs PI3Kγ: ratio of IC50 PI3Kγ to IC50 PI3Kα; for Selectivity of PI3Kα vs PI3Kδ: ratio of IC50 PI3Kδ to IC50 PI3Kα. The procedure, abridged:
as §1

Series [6] concerns PI3Kα mutant cancer cells MKN1 (E545K). The series can be described thus: Cell Titer-Glo proliferation inhibition, MKN1. Format: cell-based. The following applies: Homo sapiens, MKN-1, 48 to 96 hours. As to the method: as §2, §3
The target in series [7] is T4, PI3Kδ (Homo sapiens, UniProt O00329).
T4 construct: purchased Carna 11-103
T4 sequence (O00329 whole entry): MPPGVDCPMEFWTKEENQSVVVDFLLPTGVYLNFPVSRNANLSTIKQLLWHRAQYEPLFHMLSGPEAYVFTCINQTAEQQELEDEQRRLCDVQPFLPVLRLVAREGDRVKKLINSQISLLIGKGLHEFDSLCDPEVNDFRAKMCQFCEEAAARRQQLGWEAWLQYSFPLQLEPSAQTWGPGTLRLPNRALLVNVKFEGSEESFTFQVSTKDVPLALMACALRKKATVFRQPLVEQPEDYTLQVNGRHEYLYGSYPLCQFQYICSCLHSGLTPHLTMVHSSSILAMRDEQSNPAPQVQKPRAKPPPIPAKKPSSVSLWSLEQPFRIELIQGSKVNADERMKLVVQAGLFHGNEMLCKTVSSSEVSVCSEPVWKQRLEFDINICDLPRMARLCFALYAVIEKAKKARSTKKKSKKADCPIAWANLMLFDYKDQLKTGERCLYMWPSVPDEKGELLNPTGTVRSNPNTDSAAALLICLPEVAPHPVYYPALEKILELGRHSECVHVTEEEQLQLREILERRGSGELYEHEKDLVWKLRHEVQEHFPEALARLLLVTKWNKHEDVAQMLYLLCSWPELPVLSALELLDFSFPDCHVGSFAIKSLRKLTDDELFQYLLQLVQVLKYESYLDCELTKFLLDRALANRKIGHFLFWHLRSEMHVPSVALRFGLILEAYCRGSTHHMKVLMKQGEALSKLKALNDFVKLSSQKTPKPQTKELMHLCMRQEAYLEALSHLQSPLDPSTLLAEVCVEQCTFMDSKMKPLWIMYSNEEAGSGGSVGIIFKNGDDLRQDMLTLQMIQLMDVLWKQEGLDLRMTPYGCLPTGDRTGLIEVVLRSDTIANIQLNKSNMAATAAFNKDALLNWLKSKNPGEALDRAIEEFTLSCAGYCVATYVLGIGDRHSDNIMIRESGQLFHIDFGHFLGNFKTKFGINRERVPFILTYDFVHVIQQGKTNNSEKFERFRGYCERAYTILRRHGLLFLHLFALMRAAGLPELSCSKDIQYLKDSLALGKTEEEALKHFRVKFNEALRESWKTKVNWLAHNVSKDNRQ
T4 sequence (P27986 whole entry partner): as the sequence (P27986 whole entry partner) above
Put plainly: ADP-Glo lipid kinase assay, PI3Kδ kinase activity. The class given is biochemical. As to conditions: 0.1 nM enzyme, 90 min, 100 μM ATP. The procedure, abridged:
as §1

Series [8] is described as follows: Toxicity test of a 7-day repeatedly intragastric administration in SD rats. Format: in vivo. The text has this:
(§4) 1) In the experiment, 112 rats (56 rats/sex) were divided into 14 groups by sex and body weight, wherein 70 rats were used for toxicology study (groups 1 to 7, 5 rats/sex/group) and 42 rats were used for toxicokinetics study (groups 8 to 14, 3 rats/sex/group).
2) As the vehicle control group, the animals in groups 1 and 8 were intragastrically administered 20% aqueous SBE-(3-CD (Captisol) solution.
(§5) 3) The animals in groups 2 and 9, groups 3 and 10, and groups 4 and 11 were intragastrically administered GDC-0077 at 10, 30 and 60 mg/kg, respectively.
(§6) 4) The animals in groups 5 and 12, groups 6 and 13, and groups 7 and 14 were intragastrically administered the compound of Example 51 at 10, 30 and 60 mg/kg, respectively.
(§7) 5) The animals were administered once a day for 7 consecutive days (the animals in groups 7 and 14 were administered for 6 consecutive days).
6) The administration volume was 10 mL/kg.
(§8) 7) During the experiment, items such as clinical observation, body weight, food intake, clinicopathological indicators (blood cell count, coagulation function, blood biochemistry), toxicokinetics and the like were studied.
8) All animals were euthanized on Day 8 (the animals in groups 7 and 14 were euthanized after administration on Day 6).
9) During the experiment, gross anatomy observation was carried out on animals in groups 1 to 7, animals in group 14 and dead animals (including animals in toxicokinetics study), and histopathological examination was carried out on abnormal tissues, gastrointestinal tissues (such as colon and cecum) and immune tissues (such as thymus).

Series [9] is described as follows: Pharmacokinetic (PK) assay in mice. The following applies: male, Balb/c, mouse, plasma, po, single intragastric 5 mg/kg. The class given is in vivo. A digest of the protocol:
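Male Balb/c mice received a single intragastric dose of 5 mg/10 ml/kg in 0.5% CMC-Na. Orbital blood was taken at 0.5, 1, 2, 4, 6, 8 and 24 h into K2-EDTA; plasma was acetonitrile-precipitated and analyzed by LC-MS/MS, and PK parameters were calculated.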

Series [10] in a line: Toxicokinetics in the 7-day repeated intragastric administration study in SD rats. The class given is in vivo, Sprague-Dawley (SD) rats. As to conditions: for AUC: Sprague-Dawley, rat, plasma, po, after the last administration, read-out: average system exposure AUC.
Text: Liquid chromatography−mass spectrometry (detector: API4000, electrospray source (ESI) positive ion mode, column: Agilent ZORBAX XDB-C18 (3.5 μm, 2.1×50 mm)), which was used for the biological analysis of plasma sample.
as §4, §5, §6, §7, §8

Setting [11] is: SD rats, 10, 30 and 60 mg/kg (low, middle, high dose).

pIC50: −log10 of the molar value. Read-outs that look alike come from different tables or passages of the source.

Turning to `C[C@H](Nc1ccc2c(c1)OCCn1cc(N3C(=O)SC[C@H]3CC#N)nc1-2)C(N)=O` [Example 119, (S)-2-((2-((R)-4-(cyanomethyl)-2-oxothiazolidin-3-yl)-5,6-dihydrobenzo[f]imidazo[1,2-d][1,4]oxazepin-9-yl)amino)propanamide], the pIC50 is 6.94 in series [1]; 6.45 in series [2]; 6.39 in [3]; 6.87 in series [4]; 8.62 in [5]; 6.52 in series [6]. Further, the pIC50 in [7] was 7.15. The “Selectivity of PI3Kα vs PI3Kβ” value in series [5] is 170. Moreover, the “Selectivity of PI3Kα vs PI3Kγ” value in [5] is 48. Besides, the “Selectivity of PI3Kα vs PI3Kδ” value in [5] amounted to 30.

`C[C@H](Nc1ccc2c(c1)OCCn1cc(N3C(=O)SC[C@H]3C(F)F)nc1-2)C(N)=O` [Example 51, (S)-2-((2-((R)-4-(difluoromethyl)-2-oxothiazolidin-3-yl)-5,6-dihydrobenzo[f]imidazo[1,2-d][1,4]oxazepin-9-yl)amino)propanamide]: in [8] (SD rats), the “main target organs of the toxicity” value is “gastrointestinal tissues (such as stomach and cecum) and immune tissues (such as thymus)”; the “tolerance compared with GDC-0077” value was “better than that of GDC-0077”. In series [8] (SD rats, 10, 30 and 60 mg/kg), the Blood biochemistry result is “In 60 mg/kg group, AST, Glu and UREA increased in both male and female animals; in 30 mg/kg group, AST and UREA increased in both male and female animals, and Glu increased in male animals; and in 10 mg/kg group, AST increased in both male and female animals”; the “Blood cell counting and coagulation function” value is “In each dose group, Retic decreased in both male and female animals; and in 30 mg/kg group and 60 mg/kg group, Neut increased and PLT decreased in both male and female animals”; the “Pathology, pathological changes under the microscope” value is “bleeding and atrophy of glandular gastric mucosa; bleeding of cecal mucosa, atrophy of goblet cell, atrophy of colonic mucosa goblet cell; atrophy of splenic white pulp; and atrophy of thymic cortex or cortex and medulla, increase in tingible body macrophages and the like”. In addition, in series [8] (setting [11]), the “Body weight and food intake” value is “In the low-dose, middle-dose and high-dose groups, the final body weight declined, and the corresponding food intake also declined”; the Clinical observation result is “In the middle-dose and high-dose groups, abnormal symptoms such as arched back, loose stools, perianal contamination and fluffy coat were observed”. The Near-death/death result in series [8] (SD rats, dose of 60 mg/kg) was “near-dead/dead animals were found”. Also, in series [8] (SD rats, intragastric once/day for 7 days), the lethal dose came to 60 mg/kg. In addition, the MTD at 7 days in series [8] (both sexes, Sprague-Dawley, rat, in vivo, po, SD rats, intragastric once/day for 7 days, read-out: maximum tolerated dose (MTD)) was 30 mg/kg. The pIC50 in [1] was 7.05. In addition, the AUC(0-t) in series [9] (read-out: Area under curve AUC0-t) was found to be 2180 ng·h/mL. In addition, in series [9] (read-out: Area under curve AUC0-∞), the AUC(0-inf) worked out at 2270 ng·h/mL. The half-life in series [9] (read-out: Half-life t1/2(h) (converted)) is 1.6 h. For the same molecule, in series [9] (read-out: Mean residence time MRT), the MRT was 2.2 h. The Tmax in series [9] (read-out: Peak time tmax) was 0.5 h. Besides, the Cmax in series [9] (read-out: Plasma concentration Cmax) was 1060 ng/mL. For the same molecule, in series [3], the pIC50 is 6.77. For the same molecule, in series [5], the pIC50 is 9.70, the “Selectivity of PI3Kα vs PI3Kβ” value stood at 840, the “Selectivity of PI3Kα vs PI3Kγ” value came to 450 and the “Selectivity of PI3Kα vs PI3Kδ” value was 245. Besides, the “Cmax and AUC(0-24h) compared with GDC-0077” value in series [10] (30 mg/kg) is listed as “significantly higher than those of GDC-0077”. Besides, the AUC in series [10] (10 mg/kg intragastric once a day, female) turned out to be 3170 ng·h/mL. For the same molecule, the AUC in series [10] (10 mg/kg intragastric once a day, male) stood at 2110 ng·h/mL. For the same molecule, in series [10] (30 mg/kg intragastric once a day, female), the AUC stood at 15900 ng·h/mL. Besides, the AUC in series [10] (30 mg/kg intragastric once a day, male) was 11400 ng·h/mL. Also, in series [10] (same dose), the “system exposure compared with GDC-0077” value is “significantly higher than that of GDC-0077 at the same dose”. In series [7], the pIC50 is 7.31.

Regarding `C[C@H](Nc1ccc2c(c1)OCCn1cc(N3C(=O)OC[C@H]3CC#N)nc1-2)C(N)=O` [Example 118, (S)-2-((2-((R)-4-(cyanomethyl)-2-oxooxazolidin-3-yl)-5,6-dihydrobenzo[f]imidazo[1,2-d][1,4]oxazepin-9-yl)amino)propanamide], the pIC50 in series [1] is 7.13; in series [2] it was 6.43; in series [3], 6.72; in [4], 6.85; in [5], 8.89; in series [6], 6.40. Moreover, the negative-log IC50 (pIC50) in [7] was 7.30. Besides, the “Selectivity of PI3Kα vs PI3Kβ” value in series [5] stood at 146. The “Selectivity of PI3Kα vs PI3Kγ” value in [5] worked out at 57. Besides, the “Selectivity of PI3Kα vs PI3Kδ” value in series [5] was found to be 38.

`C[C@H](Nc1ccc2c(c1)OCCn1cc(N3C(=O)CN(C)C[C@H]3C(F)F)nc1-2)C(N)=O` [Example 69, (S)-2-((2-((S)-2-(difluoromethyl)-4-methyl-6-oxopiperazin-1-yl)-5,6-dihydrobenzo[f]imidazo[1,2-d][1,4]oxazepin-9-yl)amino)propanamide]: the pIC50 is 6.48 in series [1]; 6.36 in series [2]; 5.50 in [3]; 6.22 in series [4]; 8.68 in series [5]; 6.23 in series [6]. In series [7], the pIC50 was 6.85. In addition, the “Selectivity of PI3Kα vs PI3Kβ” value in [5] was 1514. Further, the “Selectivity of PI3Kα vs PI3Kγ” value in series [5] turned out to be 158. Besides, the “Selectivity of PI3Kα vs PI3Kδ” value in series [5] came to 68.
